Assay results reported in patent US20140228715A1, “Method and Apparatus for Delivering a Substance” (The General Hospital Corporation, priority 2011, published 2014).

Assay: Franz diffusion cell permeability of GI tissue exposed to ultrasound, scintigraphy of tissue and receiver chamber
Settings: 1-MHz, 1.4 W/cm^2; 5 min ultrasound + 55 min passive diffusion vs 30 min + 30 min

inulin
transport into or across the tissue, effect of irradiation profile: the longer irradiation time was more effective
